Consider 28 compounds from patent publication US8716309B2, “Pharmaceutical composition comprising pyridone derivatives” (priority 2011, dated 2014).

In the test the target is human α7 nAChR (Homo sapiens, UniProt P36544). As to the kind of experiment: cell-based. Particulars: EC50 of human α7nAChR(nM), HEK293T/17 cells transfected with human α7 nAChR; PNU-120596 added; relative to epibatidine 1 μM positive control.
Sequence of human α7 nAChR (P36544 23-502): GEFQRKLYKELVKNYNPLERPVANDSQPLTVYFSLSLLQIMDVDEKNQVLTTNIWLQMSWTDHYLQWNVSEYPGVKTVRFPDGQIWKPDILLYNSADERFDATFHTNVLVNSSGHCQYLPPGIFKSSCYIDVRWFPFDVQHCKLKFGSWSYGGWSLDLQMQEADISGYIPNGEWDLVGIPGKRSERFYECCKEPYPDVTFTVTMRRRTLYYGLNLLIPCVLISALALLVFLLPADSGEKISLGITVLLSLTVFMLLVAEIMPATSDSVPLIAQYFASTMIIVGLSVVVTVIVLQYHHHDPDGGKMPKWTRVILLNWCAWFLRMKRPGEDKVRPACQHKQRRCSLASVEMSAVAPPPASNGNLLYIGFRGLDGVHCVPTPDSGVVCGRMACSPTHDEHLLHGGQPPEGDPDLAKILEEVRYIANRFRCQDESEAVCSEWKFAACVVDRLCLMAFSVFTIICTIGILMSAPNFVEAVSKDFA
As a reminder, the EC50 is the concentration giving half of the maximal effect. `O=C(NC1CN2CCC1CC2)c1ccc(=O)n(-c2ccccc2)c1` (stereo not shown) [Example 1, N-(1-azoniabicyclo[2.2.2]octan-3-yl)-6-oxo-1-phenyl-3-pyridinecarboxamide] came in with an EC50 greater than 1000 nM.
Next, `O=C(NC1CN2CCC1CC2)c1ccc(=O)n(-c2ccccc2Cl)c1` (stereo not shown) [Example 2, N-(1-azabicyclo[2.2.2]octan-3-yl)-1-(2-chlorophenyl)-6-oxo-3-pyridinecarboxamide]: less than 100 nM.
On to `O=C(N[C@@H]1CN2CCC1CC2)c1ccc(=O)n(-c2ccc(Cl)cc2)c1` [Example 6, N-[(3S)-1-azabicyclo[2.2.2]octan-3-yl]-1-(4-chlorophenyl)-6-oxopyridine-3-carboxamide], for which the EC50 is greater than 1000 nM.
The compound `O=C(NC1CN2CCC1CC2)c1ccc(=O)n(-c2ccc(F)cc2)c1` (stereo not shown) [Example 7, N-(1-azabicyclo[2.2.2]octan-3-yl)-1-(4-fluorophenyl)-6-oxo-3-pyridinecarboxamide] showed an EC50 of 500 to 1000 nM.
The compound `Cc1ccccc1-n1cc(C(=O)NC2CN3CCC2CC3)ccc1=O` (stereo not shown) [Example 11, N-(1-azabicyclo[2.2.2]octan-3-yl)-1-(2-methylphenyl)-6-oxo-3-pyridinecarboxamide] showed an EC50 greater than 1000 nM.
Take `Cc1ccc(-n2cc(C(=O)NC3CN4CCC3CC4)ccc2=O)cc1` (stereo not shown) [Example 12, N-(1-azabicyclo[2.2.2]octan-3-yl)-1-(4-methylphenyl)-6-oxo-3-pyridinecarboxamide]: the EC50 lay within 500 to 1000 nM.
Next, `CCc1ccc(-n2cc(C(=O)NC3CN4CCC3CC4)ccc2=O)cc1` (stereo not shown) [Example 14, N-(1-azabicyclo[2.2.2]octan-3-yl)-1-(4-ethylphenyl)-6-oxo-3-pyridinecarboxamide]: 500 to 1000 nM; `CCCc1ccc(-n2cc(C(=O)NC3CN4CCC3CC4)ccc2=O)cc1` (stereo not shown) [Example 15, N-(1-azabicyclo[2.2.2]octan-3-yl)-6-oxo-1-(4-propylphenyl)-3-pyridinecarboxamide]: 500 to 1000 nM; `CC(C)c1ccc(-n2cc(C(=O)NC3CN4CCC3CC4)ccc2=O)cc1` (stereo not shown) [Example 17, N-(1-azabicyclo[2.2.2]octan-3-yl)-6-oxo-1-(4-propan-2-ylphenyl)-3-pyridinecarboxamide]: 500 to 1000 nM.
The compound `O=C(NC1CN2CCC1CC2)c1ccc(=O)n(-c2ccc(C3CCCCC3)cc2)c1` (stereo not shown) [Example 18, N-(1-azabicyclo[2.2.2]octan-3-yl)-1-(4-cyclohexylphenyl)-6-oxo-3-pyridinecarboxamide] displayed an EC50 of 500 to 1000 nM.
Regarding `COc1ccccc1-n1cc(C(=O)NC2CN3CCC2CC3)ccc1=O` (stereo not shown) [Example 20, N-(1-azabicyclo[2.2.2]octan-3-yl)-1-(2-methoxyphenyl)-6-oxo-3-pyridinecarboxamide], the EC50 lay within 500 to 1000 nM.
As for `Cc1ccc(-n2cc(C(=O)NC3CN4CCC3CC4)ccc2=O)c(Cl)c1` (stereo not shown) [Example 29, N-(1-azabicyclo[2.2.2]octan-3-yl)-1-(2-chloro-4-methylphenyl)-6-oxo-3-pyridinecarboxamide], the half-maximal effective concentration (EC50) was greater than 1000 nM.
Next, `Cc1ccc(-n2cc(C(=O)NC3CN4CCC3CC4)ccc2=O)c(C)c1` (stereo not shown) [Example 32, N-(1-azabicyclo[2.2.2]octan-3-yl)-1-(2,4-dimethylphenyl)-6-oxo-3-pyridinecarboxamide]: greater than 1000 nM.
Take `CC(C)(C)c1ccc(-n2cc(C(=O)NC3CN4CCC3CC4)ccc2=O)c(Cl)c1` (stereo not shown) [Example 36, N-(1-azabicyclo[2.2.2]octan-3-yl)-1-(4-tert-butyl-2-chlorophenyl)-6-oxo-3-pyridinecarboxamide]: the concentration giving a half-maximal response (EC50) is 100 to 500 nM.
Next, `O=C(NC1CN2CCC1CC2)c1ccc(=O)n(-c2ccc(Cl)cc2F)c1` (stereo not shown) [Example 38, N-(1-azabicyclo[2.2.2]octan-3-yl)-1-(4-chloro-2-fluorophenyl)-6-oxo-3-pyridinecarboxamide]: 100 to 500 nM.
Take `O=C(NC1CN2CCC1CC2)c1ccc(=O)n(-c2cccc(Cl)c2Cl)c1` (stereo not shown) [Example 46, N-(1-azabicyclo[2.2.2]octan-3-yl)-1-(2,3-dichlorophenyl)-6-oxo-3-pyridinecarboxamide]: the 50% effective concentration (EC50) is 100 to 500 nM.
The same measure for `COc1ccc(-n2cc(C(=O)NC3CN4CCC3CC4)ccc2=O)c(OC)c1` (stereo not shown) [Example 49, N-(1-azabicyclo[2.2.2]octan-3-yl)-1-(2,4-dimethoxyphenyl)-6-oxo-3-pyridinecarboxamide]: 100 to 500 nM; for `COc1ccc(Cl)cc1-n1cc(C(=O)NC2CN3CCC2CC3)ccc1=O` (stereo not shown) [Example 56, N-(1-azabicyclo[2.2.2]octan-3-yl)-1-(5-chloro-2-methoxyphenyl)-6-oxo-3-pyridinecarboxamide]: 500 to 1000 nM.
`O=C(NC1CN2CCC1CC2)c1ccc(=O)n(-c2ccc(OC(F)(F)F)cc2Cl)c1` (stereo not shown) [Example 57, N-(1-azabicyclo[2.2.2]octan-3-yl)-1-[2-chloro-4-(trifluoromethoxy)phenyl]-6-oxo-3-pyridinecarboxamide] displayed an EC50 of 100 to 500 nM.
For `O=C(NC1CN2CCC1CC2)c1ccc(=O)n(-c2cc(Cl)c(Cl)cc2Cl)c1` (stereo not shown) [Example 60, N-(1-azabicyclo[2.2.2]octan-3-yl)-1-(2,4,5-trichlorophenyl)-6-oxo-3-pyridinecarboxamide], the EC50 was 500 to 1000 nM.
Turning to `O=C(NC1CN2CCC1CC2)c1ccc(=O)n(-c2ccccc2OCc2ccccc2)c1` (stereo not shown) [Example 63, N-(1-azabicyclo[2.2.2]octan-3-yl)-6-oxo-1-(2-phenylmethoxyphenyl)-3-pyridinecarboxamide], the concentration for a half-maximal effect (EC50) was greater than 1000 nM.
The compound `O=C(NC1CN2CCC1CC2)c1ccc(=O)n(-c2ccc(-c3ccc(Cl)cc3)cc2)c1` (stereo not shown) [Example 67, N-(1-azabicyclo[2.2.2]octan-3-yl)-1-[4-(4-chlorophenyl)phenyl]-6-oxo-3-pyridinecarboxamide] registered a concentration giving a half-maximal response (EC50) of 500 to 1000 nM.
In turn, `Cc1ccc(-c2ccc(-n3cc(C(=O)NC4CN5CCC4CC5)ccc3=O)cc2)cc1` (stereo not shown) [Example 69, N-(1-azabicyclo[2.2.2]octan-3-yl)-1-[4-(4-methylphenyl)phenyl]-6-oxo-3-pyridinecarboxamide] gave an EC50 of 100 to 500 nM.
The same measure for `O=C(NC1CN2CCC1CC2)c1ccc(=O)n(-c2ccc(-c3ccccc3)cc2Cl)c1` (stereo not shown) [Example 70, N-(1-azabicyclo[2.2.2]octan-3-yl)-1-(2-chloro-4-phenylphenyl)-6-oxo-3-pyridinecarboxamide]: 100 to 500 nM.
Take `O=C(NC1CN2CCC1CC2)c1ccc(=O)n(-c2ccc(Oc3ccc(Cl)cc3)cc2)c1` (stereo not shown) [Example 71, N-(1-azabicyclo[2.2.2]octan-3-yl)-1-[4-(4-chlorophenoxy)phenyl]-6-oxo-3-pyridinecarboxamide]: the EC50 fell in the range of 100 to 500 nM.
Turning to `Cc1ccc(Oc2ccc(-n3cc(C(=O)NC4CN5CCC4CC5)ccc3=O)cc2)cc1` (stereo not shown) [Example 72, N-(1-azabicyclo[2.2.2]octan-3-yl)-1-[4-(4-methylphenoxy)phenyl]-6-oxo-3-pyridinecarboxamide], the EC50 was in the range of 100 to 500 nM.
Take `O=C(NC1CN2CCC1CC2)c1ccc(=O)n(-c2ccc(Oc3ccccc3)cc2)c1` (stereo not shown) [Example 73, N-(1-azabicyclo[2.2.2]octan-3-yl)-6-oxo-1-(4-phenoxyphenyl)-3-pyridinecarboxamide]: the EC50 is 500 to 1000 nM.
In turn, `O=C(NC1CN2CCC1CC2)c1ccc(=O)n(-c2ccccc2Oc2ccccc2)c1` (stereo not shown) [Example 74, N-(1-azabicyclo[2.2.2]octan-3-yl)-6-oxo-1-(2-phenoxyphenyl)-3-pyridinecarboxamide] displayed a 50% effective concentration (EC50) of 100 to 500 nM.
